From ChEMBL document CHEMBL1201862, “PubChem BioAssay data set” (2004)
Activity calls are given as the source filed them.

Assays:
Prothrombin = Prothrombin (Bos taurus, UniProt P00735); experiment: thrombin protease inhibitors – biochemical, fluorescence polarization, uHTS hits, dose response (AID 602369); format: functional
[1] = target: 26S proteasome non-ATPase regulatory subunit 14 (Homo sapiens, UniProt O00487); experiment: inhibition of proteasome subunit RPN11 – biochemical, fluorescence polarization, uHTS hits, confirmation (AID 602368); format: functional
Chain of 26S proteasome non-ATPase regulatory subunit 14 (O00487 whole entry): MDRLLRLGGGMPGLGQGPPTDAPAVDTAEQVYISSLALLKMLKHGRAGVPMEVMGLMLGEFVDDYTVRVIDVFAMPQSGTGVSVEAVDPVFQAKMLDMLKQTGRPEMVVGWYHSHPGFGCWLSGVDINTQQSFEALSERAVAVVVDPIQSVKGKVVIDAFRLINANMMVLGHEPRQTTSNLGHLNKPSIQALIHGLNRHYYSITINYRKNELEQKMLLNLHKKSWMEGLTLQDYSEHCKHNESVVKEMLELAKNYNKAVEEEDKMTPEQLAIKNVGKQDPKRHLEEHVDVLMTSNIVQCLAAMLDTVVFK

[2] = target: 72 kDa type IV collagenase (Homo sapiens, UniProt P08253); experiment: Dose Response validation of uHTS RPN11 inhibitor hits using a MMP-2 Fluorescence assay.; format: functional
Chain of 72 kDa type IV collagenase (P08253 whole entry): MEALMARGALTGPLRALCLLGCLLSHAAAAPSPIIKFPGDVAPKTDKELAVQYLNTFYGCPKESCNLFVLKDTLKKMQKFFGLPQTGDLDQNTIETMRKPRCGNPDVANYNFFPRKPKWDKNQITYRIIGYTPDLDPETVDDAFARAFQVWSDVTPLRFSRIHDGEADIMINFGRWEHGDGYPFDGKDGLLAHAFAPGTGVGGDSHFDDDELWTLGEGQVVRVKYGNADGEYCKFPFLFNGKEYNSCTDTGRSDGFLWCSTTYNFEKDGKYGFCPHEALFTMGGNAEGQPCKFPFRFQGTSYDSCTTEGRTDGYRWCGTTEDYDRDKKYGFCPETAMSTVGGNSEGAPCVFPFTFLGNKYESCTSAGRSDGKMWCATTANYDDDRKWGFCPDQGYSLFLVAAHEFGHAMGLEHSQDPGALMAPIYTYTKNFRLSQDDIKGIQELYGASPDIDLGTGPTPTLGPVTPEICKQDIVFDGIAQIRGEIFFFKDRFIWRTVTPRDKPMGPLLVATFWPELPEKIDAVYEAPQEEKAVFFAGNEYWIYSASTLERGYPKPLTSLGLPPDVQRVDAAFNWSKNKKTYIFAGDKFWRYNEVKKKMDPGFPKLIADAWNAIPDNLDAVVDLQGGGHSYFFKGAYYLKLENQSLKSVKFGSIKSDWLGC

[3] = non-specific 3'UTR reporter inhibition in Clone20-Shn3RL – cell-based, Renilla luciferase, cherry-picked, counter-screen for Shn3 inhibitor project, dose response (AID 624133); format: functional
[4] = Luminescence Cell-Based Dose Response HTS to Identify Inhibitors of 5'UTR Stem-Loop Driven Prion Protein mRNA Translation in H4 Neuroglioblastoma Cells. [Related pubchem assays: 1827 (Project Summary), 1813 (Primary HTS)]; format: functional
[5] = alpha-synuclein stem-loop luciferase translation blockers – H4 neuroglioma cells, luminescence, confirmation (AID 1988); format: functional, cell-based
[6] = reduction of Shn3 3'UTR-driven luciferase in osteoblasts – cell-based, Clone20 osteoblasts, firefly luciferase, cherry-picked, dose response (AID 624132); format: functional;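 note: firefly luciferase luminescence from reporter carrying the Shn3 3'UTR in osteoblasts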
cells [7] = format: functional, cell-based
[8] = loss of viability in HepG2 cells – cell-based, CellTiter-Glo, cherry-picked, cytotoxicity control for Shn3 inhibitor project, dose response (AID 624134); format: functional
Vero [9] = experiment: viability of Vero cells under compound – cytotoxicity control for flavivirus capping enzyme inhibitors (AID 588742); format: functional; conditions: Chlorocebus sabaeus
[10] = luciferase reporter signal suppression in cells – H4 neuroglioma cells, luminescence, dose response (AID 1990); format: functional, cell-based
cells [11] = format: functional, cell-based; remark: listed apart in the source
HEK293 = experiment: EBV LMP1 TES2 canonical NF-kB signalling blockers – cell-based, HEK293, luciferase, cherry-pick, dose response (AID 588343); format: functional; conditions: Homo sapiens
Nonstructural protein 1 = Nonstructural protein 1 (Influenza A virus, UniProt Q194T2); format: functional, Influenza A virus (A/California/07/2009(H1N1))
Chain of Nonstructural protein 1 (Q194T2 whole entry): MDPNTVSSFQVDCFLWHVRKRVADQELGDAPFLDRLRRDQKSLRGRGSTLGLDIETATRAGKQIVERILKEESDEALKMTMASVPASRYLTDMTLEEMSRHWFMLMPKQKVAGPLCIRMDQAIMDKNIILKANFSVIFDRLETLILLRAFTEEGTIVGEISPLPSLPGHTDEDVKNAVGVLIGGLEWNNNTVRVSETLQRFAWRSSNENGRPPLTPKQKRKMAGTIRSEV

[12] = target: Heat shock protein HSP 90-alpha (Homo sapiens, UniProt P07900); format: functional, organism-based
Vero [13] = experiment: cells; format: functional, cell-based, Chlorocebus sabaeus; conditions: Chlorocebus sabaeus, Vero
Vero [14] = experiment: cells; format: functional, Chlorocebus sabaeus; conditions: Chlorocebus sabaeus, Vero
[15] = target: Glucose-6-phosphate 1-dehydrogenase (Homo sapiens, UniProt P11413); experiment: inhibition of Homo sapiens G6PD, dose series – biochemical, fluorescence, selectivity assay for P. falciparum G6PD inhibitor project, dose response (AID 504792); format: functional
Chain of Glucose-6-phosphate 1-dehydrogenase (P11413 whole entry): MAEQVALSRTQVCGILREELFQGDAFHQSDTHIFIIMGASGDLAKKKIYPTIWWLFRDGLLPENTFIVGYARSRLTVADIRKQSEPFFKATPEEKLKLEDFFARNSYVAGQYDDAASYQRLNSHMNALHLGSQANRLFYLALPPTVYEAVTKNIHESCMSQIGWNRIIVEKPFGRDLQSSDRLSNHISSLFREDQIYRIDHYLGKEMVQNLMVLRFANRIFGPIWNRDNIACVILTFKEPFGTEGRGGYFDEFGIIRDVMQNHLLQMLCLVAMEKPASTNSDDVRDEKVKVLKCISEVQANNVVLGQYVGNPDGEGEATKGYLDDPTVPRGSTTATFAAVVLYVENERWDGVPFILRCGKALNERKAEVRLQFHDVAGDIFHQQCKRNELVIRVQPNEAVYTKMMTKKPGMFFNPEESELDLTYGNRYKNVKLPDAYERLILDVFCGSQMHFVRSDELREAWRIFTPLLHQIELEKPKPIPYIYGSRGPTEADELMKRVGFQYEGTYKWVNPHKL

## CCOC(=O)Cc1csc(NC(=O)c2sc3nc4ccc(C)cc4cc3c2N)n1
Prothrombin
  IC50: 77.9 µM (active)
[1]
  IC50: 33.9 µM (active)
[2]
  IC50: > 100 µM (inactive)

## COc1ccc(C(NC(=O)c2cccnc2)c2cc(Cl)c3cccnc3c2O)cc1OC (stereo not given)
[3]
  AC50: 1.14 µM (active)
[4]
  EC50: 0.297 µM (active)
[5]
  EC50: > 120 µM (not active)
[6]
  AC50: 1.88 µM (active)
Cells [7]
  EC50: > 350 µM (not active)
[8]
  AC50: 2.7 µM (active)
Vero [9]
  CC50: 3.92 µM (active)
[10]
  EC50: 13.3 µM (active)
Cells [11]
  EC50: 14.2 µM (active)

## O=C(N/N=C/c1ccc(Cl)cc1Cl)c1ccc2[nH]cnc2c1
Prothrombin
  IC50: 51.7 µM (active)
[1]
  IC50: 20.9 µM (active)
[2]
  IC50: > 100 µM (inactive)

## CC(=NNc1nc2ccccc2o1)c1ncccn1
HEK293
  AC50: 1.23 µM (active)
Nonstructural protein 1
  IC50: 0.739 µM (active)
[12]
  AC50: 1.97 µM (active)
Vero [13]
  IC50: > 25 µM (active)
Vero [14]
  CC50: 1.34 µM (active)

## CCn1c([N+](=O)[O-])nc2c1c(=O)[nH]c(=O)n2C
[15]
  IC50: > 80 µM (inactive)

## COc1ccc(CCn2c(NN=C3CCCC3)nc3c2c(=O)[nH]c(=O)n3C)cc1
[15]
  IC50: > 80 µM (inactive)

## COc1ccccc1NC(=O)CSc1nc(N)c(C#N)cc1C#N
Prothrombin
  IC50: 55.8 µM (active)
[1]
  IC50: 36.2 µM (active)
[2]
  IC50: > 100 µM (inactive)
